Experimental data published in PubChem BioAssay (NCI).
Values joined by “and” are separate entries in the source; they are usually repeats but may differ in a detail not shown here. Equal values may be shown once.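 In this assay, cells in 96-well plates receive the compound at five concentrations for 48 hours. Endpoints are linearly interpolated between the surrounding concentrations. Abbreviation: GI50, concentration required for 50% inhibition of growth. TGI marks complete inhibition of growth.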

Columns and labels:
Assay in all cases: NCI-60 cell line screen, 48 h
SW-620 colon = tested on: SW-620 colon
MALME-3M melanoma = tested on: MALME-3M melanoma
UO-31 renal = tested on: UO-31 renal
NCI-H23 lung = tested on: NCI-H23 lung
UACC-257 melanoma = tested on: UACC-257 melanoma
M14 melanoma = tested on: M14 melanoma
SN12C renal = tested on: SN12C renal
OVCAR-3 ovarian = tested on: OVCAR-3 ovarian
HCT-116 colon = tested on: HCT-116 colon
U251 CNS = tested on: U251 CNS

Compound	TGI (SW-620 colon)	TGI (MALME-3M melanoma)	TGI (UO-31 renal) [µM]	TGI (NCI-H23 lung)	TGI (UACC-257 melanoma)	TGI (M14 melanoma)	TGI (SN12C renal)	TGI (OVCAR-3 ovarian)	TGI (HCT-116 colon)	TGI (U251 CNS)	GI50 (SW-620 colon) [µM]	GI50 (MALME-3M melanoma)	GI50 (NCI-H23 lung)	GI50 (UACC-257 melanoma) [µM]	GI50 (M14 melanoma)	GI50 (SN12C renal)	GI50 (U251 CNS) [µM]	GI50 (OVCAR-3 ovarian) [µM]	GI50 (HCT-116 colon)	GI50 (UO-31 renal) [µM]
CNS(=O)(=O)NN(C)S(=O)(=O)c1ccc(C)cc1	> 100 µM	> 100 µM	> 100	> 100 µM	> 100 µM	> 100 µM	> 100 µM	> 100 µM	> 100 µM											
COc1cc(-c2[nH]ncc2CCCC(=O)Nc2ccccc2[N+](=O)[O-])ccc1O	> 100 µM	48.9 µM	> 100	> 100 µM	> 100 µM	> 100 µM	> 100 µM		> 100 µM	> 100 µM										
C=C1CCC2C3(C)COC(c4cccc(Cl)c4)OC3CCC2(C)C1/C=C/C1=CCOC1=O (stereo not given)	> 100 µM	> 100 µM		> 100 µM	> 100 µM	> 100 µM	> 100 µM	> 100 µM	> 100 µM	> 100 µM	80.3	> 100 µM	5.17 µM	3.43	> 100 µM	> 100 µM	7.08	7.95	3.08 µM	
CCCCCNC(=O)C1C(=O)N(CCCCC)C(=O)/C1=N\N (stereo not given)	> 100 µM	> 100 µM	81.8	> 100 µM	> 100 µM	> 100 µM	> 100 µM	> 100 µM		> 100 µM										
COc1ccc(C(=O)Nc2ccccc2)cc1[N+](=O)[O-]	> 100 µM	> 100 µM	> 100	> 100 µM	> 100 µM	> 100 µM	> 100 µM	> 100 µM		> 100 µM										
Cc1ccc(S(=O)(=O)OC(C=O)C(O)C(O)COC(c2ccccc2)(c2ccccc2)c2ccccc2)cc1 (stereo not given)	35.2 µM	33.7 µM	30.4		25.9 µM	30.1 µM	28.9 µM	28.1 µM	30.5 µM	27.9 µM										
CN(C)CC1CCCC(CN(C)C)C1=O (stereo not given)	0.639 µM and 1.92 µM	1.61 µM and 6.54 µM		18.5 µM and 43.4 µM	4.49 µM and 5.8 µM	3.03 µM and 11.7 µM	5.78 µM and 18.4 µM	5.47 µM and 3.64 µM	3.64 µM and 7.98 µM	23 µM and 34.6 µM	0.367	0.653 µM and 2.61 µM	5.35 µM and 20.7 µM		1.48 µM and 6.11 µM	2.58 µM and 7.36 µM			1.66 µM and 3.36 µM	
COC12c3ccccc3-c3ccccc3C1[C@@H](C(=O)O)[C@H]2C(=O)O (stereo not given in full)	> 10 µM	> 10 µM	> 10	> 10 µM	> 10 µM	> 10 µM	> 10 µM	> 10 µM		> 10 µM										
Cn1cccc1C1CC(=O)N(CCC[Se]C#N)C1=O (stereo not given)	11.8 µM	4.12 µM	3.29	7.88 µM	4.73 µM	3.89 µM		3.99 µM	6.27 µM	3.48 µM	3.26	1.89 µM	2.6 µM	1.95	1.56 µM		1.72	1.92	2.34 µM	1.57
O=c1[nH]cnc2c1nnn2C1C=C(CO)C(O)C1O (stereo not given)			> 100	> 100 µM	> 100 µM	> 100 µM	> 100 µM	> 100 µM	> 100 µM	> 100 µM										
O=C1/C(=C/c2ccccc2Cl)COc2ccccc21	20.8 µM	29.7 µM	28.3	36 µM	34.9 µM			34.8 µM	17 µM	26.9 µM										
NC(=NCc1ccccc1)N/N=C\c1ccnc2ccccc12	31.2 µM	27 µM	22.1	31.7 µM	8.63 µM	17.5 µM	29.6 µM	27.2 µM		36.6 µM										
C#CCSc1nnnn1-c1ccc(Br)c(C)c1	52.1 µM	71.8 µM		88.6 µM	> 100 µM	> 100 µM	> 100 µM	95.8 µM	> 100 µM	> 100 µM	19.1	27.2 µM	21.5 µM	35.2	31.1 µM	19.1 µM	12	23.2	29.3 µM	
CC(=O)[CH-]C(=O)c1ccccc1.CC(=O)[CH-]C(=O)c1ccccc1.[O-]Cc1cccs1.[O-]Cc1cccs1.[Ti+4]	> 100 µM	> 100 µM	> 100		> 100 µM	> 100 µM	> 100 µM	> 100 µM	> 100 µM	> 100 µM	49.9	> 100 µM		> 100	21.6 µM	36.8 µM	> 100	> 100	33 µM	> 100
OCCC#Cc1ccccc1C#Cc1ccccc1	28.2 µM	27.1 µM	> 100	39.9 µM	45.9 µM	31.6 µM	26.8 µM		33.6 µM	> 100 µM	13.4	14 µM	18.2 µM	22.4	16 µM	12.5 µM	35		17.5 µM	34.3
CC1=C(C(=O)Nc2cc(F)c(F)cc2F)C(c2cccc([N+](=O)[O-])c2)C(C(=O)Nc2ccccc2C(F)(F)F)=C(C)N1 (stereo not given)	87.1 µM	77.8 µM	42	46.5 µM	59.3 µM	55.5 µM	56.5 µM	41.9 µM		53.1 µM										
COc1ccc2c(c1)C(=O)/C(=C/c1ccc(OCC(=O)c3ccc(Cl)cc3)cc1)O2	10.6 µM	42.3 µM	25.6	31.7 µM	> 100 µM		63.9 µM	24.8 µM	13 µM	35.3 µM	3.48	20 µM	11.6 µM	> 100		17.3 µM	15.5	12.3	3.07 µM	10.4
COC(=O)C12C3C=CC(O3)C1C1C=CC2O1 (stereo not given)	> 100 µM	> 100 µM	> 100	> 100 µM	> 100 µM	> 100 µM	> 100 µM	> 100 µM		> 100 µM										
Nc1ccc(C(=O)O)c2[nH]c3ccccc3c(=O)c12	> 100 µM	> 100 µM	> 100		> 100 µM	> 100 µM	> 100 µM		> 100 µM	> 100 µM										
CCN=C(N)CSS(=O)(=O)O	> 100 µM	> 100 µM		> 100 µM	> 100 µM	> 100 µM	> 100 µM	> 100 µM	> 100 µM	> 100 µM										
CCOC(=O)c1c(-c2ccccc2)[nH]c2ccccc2c1=O	> 100 µM	> 100 µM	> 100	> 100 µM	> 100 µM	> 100 µM			> 100 µM	> 100 µM										
COC(=O)[C@@]12C3=NO[C@]1(C(=O)OC)C(O[Si](C)(C)C(C)(C)C)C1OC(C)(C)OC1[C@@H]2[C@@H](OCc1ccccc1)CC3 (stereo not given in full)	> 100 µM		> 100	> 100 µM		> 100 µM	> 100 µM	> 100 µM	> 100 µM	> 100 µM										
COc1ccc(C(=O)Nc2ccccc2C#N)cc1	> 100 µM	> 100 µM		> 100 µM	> 100 µM		> 100 µM	> 100 µM	> 100 µM	> 100 µM										
Clc1ccc(C2=NN(c3ccccc3)C3c4cc(Br)ccc4OCC23)cc1 (stereo not given)	> 100 µM	> 100 µM	> 100	> 100 µM	> 100 µM			> 100 µM	> 100 µM	> 100 µM										
COC(=O)C1(c2ccc(OC)cc2)NC(c2ccccc2)C2C(=O)N(c3ccc(OC)cc3)C(=O)C21 (stereo not given)	> 100 µM	> 100 µM	> 100	> 100 µM	> 100 µM	> 100 µM	> 100 µM			> 100 µM										
N/C(=N\N=C=C1C(=O)Nc2ccc(F)cc21)NO	> 100 µM	> 100 µM		> 100 µM	> 100 µM	> 100 µM	> 100 µM	> 100 µM	> 100 µM	> 100 µM										
Cc1nc(N=C(N)N)nc2ccc3ccccc3c12	10.3 µM		8.52	7.31 µM	4.17 µM	3.43 µM	3.84 µM	3.77 µM	4.82 µM	2.29 µM	0.897		2.33 µM	1.46	1.59 µM	0.49 µM	0.676	1.32	1.12 µM	2.14
CCOC(=O)C12CN(C34CC5CC(CC(C5)C3)C4)CC(C(=O)OCC)(C1=O)C(c1ccccc1)OC2c1ccccc1 (stereo not given)	> 100 µM	> 100 µM	> 100	> 100 µM	> 100 µM	> 100 µM		> 100 µM		> 100 µM										
CN(C)c1ccc(N=C(C#N)c2nc(N)nc(N3CCOCC3)n2)cc1	> 100 µM	49.4 µM	> 100	> 100 µM	> 100 µM	> 100 µM	98.5 µM	> 100 µM		> 100 µM	> 100	16.4 µM	> 100 µM	> 100	> 100 µM	28.8 µM	32.9	34.6		71.7
